This is an account of results in patent US8299056B2 (Signal Pharmaceuticals, LLC, priority 2008, dated 2012).

This assay addresses T1, Syk (Homo sapiens, UniProt P43405).
T1 construct: purchased Carna Biosciences
As to the kind of experiment: Syk HTRF assay. It counts as biochemical. The following applies: activity levels A-D, read-out: Activity Level (IC50 in the Syk HTRF assay). In a few lines: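 HTRF kinase assay in HEPES pH 7.6 buffer with MgCl2, DTT and Triton X100; start mix of 87.5 μM ATP and 80 nM biotinylated peptide, 1 h at room temperature. EDTA stop, then Eu-anti-phosphotyrosine/streptavidin-DyLight 647 detection, read as 665/615 nm emission ratio.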
A general note: In TR-FRET formats the signal depends on donor and acceptor labels being close together.
Broadly, the IC50 is the concentration at which inhibition is half-maximal. With `Cc1cccc(Nc2nc3cccc(N[C@H]4CC[C@@H](O)CC4)n3n2)c1` [Example 350, cis-4-(2-(m-tolylamino)-[1,2,4]triazolo[1,5-a]pyridin-5-ylamino)cyclohexanol], the IC50 was 0.005 to 250 nM. For `Cc1n[nH]c2cc(Nc3nc4cccc(N[C@H]5CC[C@@H](O)CC5)n4n3)ccc12` [Example 351, cis-4-(2-(3-methyl-1H-indazol-6-ylamino)-[1,2,4]triazolo[1,5-a]pyridin-5-ylamino)cyclohexanol] the value was 0.005 to 250 nM.

In the case of `FC(F)(F)c1ccc(Nc2nc3cccc(OC4CCNCC4)n3n2)cc1` [Example 352, 5-(piperidin-4-yloxy)-N-(4-(trifluoromethyl)phenyl)-[1,2,4]triazolo[1,5-a]pyridin-2-amine], the IC50 lay within 1000 to 10000 nM. Consider `O[C@H]1CC[C@@H](Nc2cccc3nc(Nc4ccc(Cl)cc4)nn23)CC1` [Example 353, cis-4-(2-(4-chlorophenylamino)-[1,2,4]triazolo[1,5-a]pyridin-5-ylamino)cyclohexanol], for which the IC50 was in the range of 0.005 to 250 nM. With `O[C@H]1CC[C@@H](Nc2cccc3nc(Nc4cccc(Cl)c4)nn23)CC1` [Example 354, cis-4-(2-(3-chlorophenylamino)-[1,2,4]triazolo[1,5-a]pyridin-5-ylamino)cyclohexanol], the IC50 lay within 0.005 to 250 nM.

Consider `O[C@H]1CC[C@@H](Nc2cccc3nc(Nc4cccc(F)c4)nn23)CC1` [Example 355, cis-4-(2-(3-fluorophenylamino)-[1,2,4]triazolo[1,5-a]pyridin-5-ylamino)cyclohexanol], for which the IC50 was in the range of 0.005 to 250 nM. In the case of `O[C@H]1CC[C@@H](Nc2cccc3nc(Nc4ccccc4F)nn23)CC1` [Example 357, cis-4-(2-(2-fluorophenylamino)-[1,2,4]triazolo[1,5-a]pyridin-5-ylamino)cyclohexanol] it was 1000 to 10000 nM; in that of `CC(C)(CO)Nc1cccc2nc(Nc3ccc(C(F)(F)F)cc3)nn12` [Example 358, 2-methyl-2-(2-(4-(trifluoromethyl)phenylamino)-[1,2,4]triazolo[1,5-a]pyridin-5-ylamino)propan-1-ol], 1000 to 10000 nM; in that of `CC(C)(O)c1ccc(Nc2nc3cccc(N[C@H]4CC[C@@H](O)CC4)n3n2)cn1` [Example 359, cis-4-(2-(6-(2-hydroxypropan-2-yl)pyridin-3-ylamino)-[1,2,4]triazolo[1,5-a]pyridin-5-ylamino)cyclohexanol], 1000 to 10000 nM.

`CNC(=O)c1ccc(Nc2nc3cccc(N[C@H]4CC[C@@H](N)CC4)n3n2)cc1` [Example 360, 4-(5-(cis-4-aminocyclohexylamino)-[1,2,4]triazolo[1,5-a]pyridin-2-ylamino)-N-methylbenzamide]: the IC50 was 500 to 1000 nM. For `FC(F)(F)c1ccc(Nc2nc3cccc(O[C@H]4CCCNC4)n3n2)cc1` [Example 362, (S)-5-(piperidin-3-yloxy)-N-(4-(trifluoromethyl)phenyl)-[1,2,4]triazolo[1,5-a]pyridin-2-amine], the IC50 was 1000 to 10000 nM. In the case of `N#Cc1ccc(Nc2nc3cccc(N[C@H]4CC[C@@H](O)CC4)n3n2)cc1` [Example 363, 4-(5-(cis-4-hydroxycyclohexylamino)-[1,2,4]triazolo[1,5-a]pyridin-2-ylamino)benzonitrile] it was 0.005 to 250 nM. On to `Cn1ncc2ccc(Nc3nc4cccc(N[C@H]5CC[C@@H](O)CC5)n4n3)cc21` [Example 364, cis-4-(2-(1-methyl-1H-indazol-6-ylamino)-[1,2,4]triazolo[1,5-a]pyridin-5-ylamino)cyclohexanol], for which the IC50 lay within 0.005 to 250 nM. In the case of `O[C@H]1CC[C@@H](Nc2cccc3nc(Nc4ccc5cn[nH]c5c4)nn23)CC1` [Example 365, cis-4-(2-(1H-indazol-6-ylamino)-[1,2,4]triazolo[1,5-a]pyridin-5-ylamino)cyclohexanol] it was 0.005 to 250 nM. In the case of `CNc1cc(Nc2nc3cccc(N[C@H]4CC[C@@H](O)CC4)n3n2)ccn1` [Example 366, cis-4-(2-(2-(methylamino)pyridin-4-ylamino)-[1,2,4]triazolo[1,5-a]pyridin-5-ylamino)cyclohexanol] it was 0.005 to 250 nM; in that of `Cc1cc(Nc2nc3cccc(N[C@H]4CC[C@@H](O)CC4)n3n2)ccn1` [Example 367, cis-4-(2-(2-methylpyridin-4-ylamino)-[1,2,4]triazolo[1,5-a]pyridin-5-ylamino)cyclohexanol], 500 to 1000 nM; in that of `COc1cncc(Nc2nc3cccc(N[C@H]4CC[C@@H](O)CC4)n3n2)c1` [Example 368, cis-4-(2-(5-methoxypyridin-3-ylamino)-[1,2,4]triazolo[1,5-a]pyridin-5-ylamino)cyclohexanol], 500 to 1000 nM. For `NC(=O)c1cncc(Nc2nc3cccc(N[C@H]4CC[C@@H](O)CC4)n3n2)c1` [Example 369, cis-5-(5-(4-hydroxycyclohexylamino)-[1,2,4]triazolo[1,5-a]pyridin-2-ylamino)nicotinamide] the value was 1000 to 10000 nM; for `NC(=O)c1ccc(Nc2nc3cccc(N[C@H]4CC[C@@H](O)CC4)n3n2)cn1` [Example 370, cis-5-(5-(4-hydroxycyclohexylamino)-[1,2,4]triazolo[1,5-a]pyridin-2-ylamino)picolinamide], 500 to 1000 nM; for `Oc1ccc(Nc2nc3cccc(N[C@H]4CC[C@@H](O)CC4)n3n2)cn1` [Example 371, cis-5-(5-(4-hydroxycyclohexylamino)-[1,2,4]triazolo[1,5-a]pyridin-2-ylamino)pyridin-2-ol], 1000 to 10000 nM.

For the molecule `FC(F)(F)c1ccc(Nc2nc3cccc(Cc4ccncc4)n3n2)cc1` [Example 372, 5-(pyridin-4-ylmethyl)-N-(4-(trifluoromethyl)phenyl)-[1,2,4]triazolo[1,5-a]pyridin-2-amine], the IC50 is 1000 to 10000 nM.

With `O[C@H]1CC[C@H](CNc2cccc3nc(Nc4ccc(C(F)(F)F)cc4)nn23)CC1` [Example 375, trans-4-((2-(4-(trifluoromethyl)phenylamino)-[1,2,4]triazolo[1,5-a]pyridin-5-ylamino)methyl)cyclohexanol], the IC50 was in the range of 1000 to 10000 nM.

As for `COc1cc(Nc2nc3cccc(N[C@H]4CC[C@@H](O)CC4)n3n2)ccn1` [Example 378, cis-4-(2-(2-methoxypyridin-4-ylamino)-[1,2,4]triazolo[1,5-a]pyridin-5-ylamino)cyclohexanol], the IC50 is 0.005 to 250 nM. On to `CC(C)(O)c1nc2ccc(-c3cccc4nc(Nc5ccc(C(F)(F)F)cc5)nn34)cc2[nH]1` [Example 379, 2-(6-(2-(4-(trifluoromethyl)phenylamino)-[1,2,4]triazolo[1,5-a]pyridin-5-yl)-1H-benzo[d]imidazol-2-yl)propan-2-ol], for which the IC50 is 250 to 500 nM. In the case of `FC(F)(F)c1ccc(Nc2nc3cccc(-c4cnc5nc[nH]c5c4)n3n2)cc1` [Example 380, 5-(1H-imidazo[4,5-b]pyridin-6-yl)-N-(4-(trifluoromethyl)phenyl)-[1,2,4]triazolo[1,5-a]pyridin-2-amine] it was 0.005 to 250 nM; in that of `N#Cc1ccc(Nc2nc3cccc(N[C@H]4CC[C@@H](O)CC4)n3n2)cn1` [Example 381], 1000 to 10000 nM. In the case of `O[C@H]1CC[C@@H](CNc2cccc3nc(Nc4ccc(C(F)(F)F)cc4)nn23)CC1` [Example 382, cis-4-((2-(4-(trifluoromethyl)phenylamino)-[1,2,4]triazolo[1,5-a]pyridin-5-ylamino)methyl)cyclohexanol] it was 1000 to 10000 nM.
